Literature values as cited in publication PMC4168221 (Clinical Drug Investigation, 2014).

Settings: cited from earlier work

Compound	C max and AUC as a function of renal function	CLR in patients with moderate renal impairment	systemic exposure in patients with moderate renal impairment
CCOc1ccc(Cc2cc([C@@H]3O[C@H](CO)[C@@H](O)[C@H](O)[C@H]3O)ccc2Cl)cc1 [dapagliflozin]	increased incrementally with declining renal function	–	–
OC[C@H]1O[C@@H](c2ccc(Cl)c(Cc3ccc(O[C@H]4CCOC4)cc3)c2)[C@H](O)[C@@H](O)[C@@H]1O [empagliflozin]	–	decreased	moderately increased
